In ChEMBL document CHEMBL1135153, “Cephalosporin-derived inhibitors of beta-lactamase. Part 4: The C3 substituent” (Bioorg Med Chem Lett, 2002):

Target: Beta-lactamase (Enterobacter cloacae, UniProt P05364)
Assay: Inhibitory activity against Class C beta-lactamase

Chain of Beta-lactamase (P05364 whole entry): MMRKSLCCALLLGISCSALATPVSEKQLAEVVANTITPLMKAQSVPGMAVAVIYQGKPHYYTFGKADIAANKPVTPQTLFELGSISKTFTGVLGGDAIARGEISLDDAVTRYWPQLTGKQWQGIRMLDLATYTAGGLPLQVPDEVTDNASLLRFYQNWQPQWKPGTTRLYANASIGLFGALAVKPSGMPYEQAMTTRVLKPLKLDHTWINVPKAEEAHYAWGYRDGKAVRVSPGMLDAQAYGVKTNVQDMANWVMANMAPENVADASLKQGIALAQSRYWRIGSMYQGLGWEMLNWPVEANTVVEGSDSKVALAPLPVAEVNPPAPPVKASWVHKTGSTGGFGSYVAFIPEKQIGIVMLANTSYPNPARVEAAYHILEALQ

SMILES	IC50
O=C(/C=C/C1=C(C(=O)O)N2C(=O)/C(=C/c3ccccn3)[C@H]2S(=O)(=O)C1)Nc1ccc(O)cc1	35 nM
O=C(O)C1=C(C(=O)O)N2C(=O)/C(=C/c3ccccn3)[C@H]2S(=O)(=O)C1	32 nM
O=C(/C=C/C1=C(C(=O)O)N2C(=O)/C(=C/c3ccccn3)[C@H]2S(=O)(=O)C1)NC1CC1	824 nM
CN1CCN(C(=O)/C=C/C2=C(C(=O)O)N3C(=O)/C(=C/c4ccccn4)[C@H]3S(=O)(=O)C2)CC1	6340 nM
NC(=O)/C=C/C1=C(C(=O)O)N2C(=O)/C(=C/c3ccccn3)[C@H]2S(=O)(=O)C1	22 nM
O=C(/C=C/C1=C(C(=O)O)N2C(=O)/C(=C/c3ccccn3)[C@H]2S(=O)(=O)C1)NCCO	212 nM
CS(=O)(=O)C1=C(C(=O)O)N2C(=O)/C(=C/c3ccccn3)[C@H]2S(=O)(=O)C1	90.7 nM
CSC1=C(C(=O)O)N2C(=O)/C(=C/c3ccccn3)[C@H]2S(=O)(=O)C1	59 nM
O=C(O)C1=C(Br)CS(=O)(=O)[C@@H]2/C(=C\c3ccccn3)C(=O)N12	2.9 nM
O=C(O)CNC(=O)/C=C/C1=C(C(=O)O)N2C(=O)/C(=C/c3ccccn3)[C@H]2S(=O)(=O)C1	310 nM
O=C(O)C1=CCS(=O)(=O)[C@@H]2/C(=C\c3ccccn3)C(=O)N12	116 nM
O=C(O)C1=C(F)CS(=O)(=O)[C@@H]2/C(=C\c3ccccn3)C(=O)N12	11 nM
O=C(/C=C/C1=C(C(=O)O)N2C(=O)/C(=C/c3ccccn3)[C@H]2S(=O)(=O)C1)NCc1ccccc1	110 nM
NNC(=O)/C=C/C1=C(C(=O)O)N2C(=O)/C(=C/c3ccccn3)[C@H]2S(=O)(=O)C1	1100 nM
O=C(O)C1=C(I)CS(=O)(=O)[C@@H]2/C(=C\c3ccccn3)C(=O)N12	4.7 nM
O=C(/C=C/C1=C(C(=O)O)N2C(=O)/C(=C/c3ccccn3)[C@H]2S(=O)(=O)C1)NCC(F)(F)F	1180 nM

Further compounds by falling IC50, results first:

IC50	SMILES
4200 nM	NCCCNC(=O)/C=C/C1=C(C(=O)O)N2C(=O)/C(=C/c3ccccn3)[C@H]2S(=O)(=O)C1
174 nM	O=C(O)C1=C(S(=O)(=O)c2ccccc2)CS(=O)(=O)[C@@H]2/C(=C\c3ccccn3)C(=O)N12
128 nM	O=C(/C=C/C1=C(C(=O)O)N2C(=O)/C(=C/c3ccccn3)[C@H]2S(=O)(=O)C1)NO
127 nM	O=C(/C=C/C1=C(C(=O)O)N2C(=O)/C(=C/c3ccccn3)[C@H]2S(=O)(=O)C1)Nc1c(F)c(F)c(F)c(F)c1F
40.3 nM	O=C(O)C1=C(c2cccs2)CS(=O)(=O)[C@@H]2/C(=C\c3ccccn3)C(=O)N12
38 nM	O=C(O)C1=C(c2ccccc2)CS(=O)(=O)[C@@H]2/C(=C\c3ccccn3)C(=O)N12
21.7 nM	O=C(O)C1=C(Sc2ccccc2)CS(=O)(=O)[C@@H]2/C(=C\c3ccccn3)C(=O)N12
5.5 nM	N=C(N)NCCNC(=O)/C=C/C1=C(C(=O)O)N2C(=O)/C(=C/c3ccccn3)[C@H]2S(=O)(=O)C1
3 nM	O=C(O)C1=C(Cl)CS(=O)(=O)[C@@H]2/C(=C\c3ccccn3)C(=O)N12
